Experimental data published in ChEMBL document CHEMBL1136991, “Novel potent BRAF inhibitors: toward 1 nM compounds through optimization of the central phenyl ring” (J Med Chem, 2009).

Assays:
[1] = target: Mitogen-activated protein kinase 11 (Homo sapiens) (UniProt Q15759); assay: Inhibition of p38beta at 1 uM relative to control
[2] = target: Calcium/calmodulin-dependent protein kinase kinase 2 (Homo sapiens) (UniProt Q96RR4); assay: Inhibition of CAMKKb at 1 uM relative to control
[3] = target: RAC-alpha serine/threonine-protein kinase (Homo sapiens) (UniProt P31749); assay: Inhibition of PKBalpha at 1 uM relative to control
Chain of RAC-alpha serine/threonine-protein kinase (Homo sapiens) (P31749 whole entry): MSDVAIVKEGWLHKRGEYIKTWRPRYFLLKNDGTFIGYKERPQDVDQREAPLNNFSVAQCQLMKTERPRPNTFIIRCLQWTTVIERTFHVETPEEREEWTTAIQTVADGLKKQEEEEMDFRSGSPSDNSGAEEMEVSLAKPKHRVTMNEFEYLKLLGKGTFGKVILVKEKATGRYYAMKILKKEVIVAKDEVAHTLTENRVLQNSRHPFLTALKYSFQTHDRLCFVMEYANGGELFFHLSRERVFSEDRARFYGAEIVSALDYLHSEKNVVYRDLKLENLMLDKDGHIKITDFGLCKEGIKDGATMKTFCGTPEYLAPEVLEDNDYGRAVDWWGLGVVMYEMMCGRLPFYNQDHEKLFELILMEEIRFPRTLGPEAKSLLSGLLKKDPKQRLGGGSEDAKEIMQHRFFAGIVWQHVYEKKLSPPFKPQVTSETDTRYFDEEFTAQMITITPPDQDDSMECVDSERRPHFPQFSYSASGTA

[4] = target: Mitogen-activated protein kinase 10 (Homo sapiens) (UniProt P53779); assay: Inhibition of JNK3 at 1 uM relative to control
[5] = target: MAP kinase-interacting serine/threonine-protein kinase 1 (Homo sapiens) (UniProt Q9BUB5); assay: Inhibition of MNK1 at 1 uM relative to control
Chain of MAP kinase-interacting serine/threonine-protein kinase 1 (Homo sapiens) (Q9BUB5 whole entry, looked up): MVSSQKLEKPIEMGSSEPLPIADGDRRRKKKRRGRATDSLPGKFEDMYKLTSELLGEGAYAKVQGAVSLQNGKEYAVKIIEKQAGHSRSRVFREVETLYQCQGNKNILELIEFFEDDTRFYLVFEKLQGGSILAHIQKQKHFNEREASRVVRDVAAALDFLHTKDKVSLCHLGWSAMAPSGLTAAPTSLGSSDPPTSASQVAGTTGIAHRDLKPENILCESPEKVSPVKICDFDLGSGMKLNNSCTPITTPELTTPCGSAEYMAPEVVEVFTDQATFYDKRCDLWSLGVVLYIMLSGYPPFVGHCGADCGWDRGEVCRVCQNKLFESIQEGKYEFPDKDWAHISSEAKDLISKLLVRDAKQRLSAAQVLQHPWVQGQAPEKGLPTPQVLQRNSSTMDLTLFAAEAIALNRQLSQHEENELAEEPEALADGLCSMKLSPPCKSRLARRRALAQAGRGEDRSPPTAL

[6] = target: Tyrosine-protein kinase CSK (Homo sapiens) (UniProt P41240); assay: Inhibition of CSK at 1 uM relative to control
[7] = target: Serine/threonine-protein kinase PLK1 (Homo sapiens) (UniProt P53350); assay: Inhibition of okadaic acid activated PLK1 at 1 uM relative to control
[8] = target: Serine/threonine-protein kinase Nek6 (Homo sapiens) (UniProt Q9HC98); assay: Inhibition of NEK6 at 1 uM relative to control
[9] = target: Glycogen synthase kinase-3 beta (Homo sapiens) (UniProt P49841); assay: Inhibition of GSK3-beta at 1 uM relative to control
[10] = target: Serine/threonine-protein kinase Nek7 (Homo sapiens) (UniProt Q8TDX7); assay: Inhibition of NEK7 at 1 uM relative to control
[11] = target: Serine/threonine-protein kinase pim-2 (Homo sapiens) (UniProt Q9P1W9); assay: Inhibition of PIM2 at 1 uM relative to control
Chain of Serine/threonine-protein kinase pim-2 (Homo sapiens) (Q9P1W9 whole entry, looked up): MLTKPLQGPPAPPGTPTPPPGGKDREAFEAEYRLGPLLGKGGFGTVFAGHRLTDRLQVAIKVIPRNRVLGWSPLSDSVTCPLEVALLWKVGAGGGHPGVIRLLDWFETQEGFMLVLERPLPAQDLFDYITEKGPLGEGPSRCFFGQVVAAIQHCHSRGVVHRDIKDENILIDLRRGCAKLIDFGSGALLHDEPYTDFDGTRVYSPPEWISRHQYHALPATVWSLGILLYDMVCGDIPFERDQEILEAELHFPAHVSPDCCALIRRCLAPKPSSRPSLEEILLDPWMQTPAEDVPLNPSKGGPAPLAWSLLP

[12] = target: T1, Protein kinase C zeta type (Homo sapiens) (UniProt Q05513); assay: Inhibition of PKCzeta at 1 uM relative to control
T1 sequence (whole entry): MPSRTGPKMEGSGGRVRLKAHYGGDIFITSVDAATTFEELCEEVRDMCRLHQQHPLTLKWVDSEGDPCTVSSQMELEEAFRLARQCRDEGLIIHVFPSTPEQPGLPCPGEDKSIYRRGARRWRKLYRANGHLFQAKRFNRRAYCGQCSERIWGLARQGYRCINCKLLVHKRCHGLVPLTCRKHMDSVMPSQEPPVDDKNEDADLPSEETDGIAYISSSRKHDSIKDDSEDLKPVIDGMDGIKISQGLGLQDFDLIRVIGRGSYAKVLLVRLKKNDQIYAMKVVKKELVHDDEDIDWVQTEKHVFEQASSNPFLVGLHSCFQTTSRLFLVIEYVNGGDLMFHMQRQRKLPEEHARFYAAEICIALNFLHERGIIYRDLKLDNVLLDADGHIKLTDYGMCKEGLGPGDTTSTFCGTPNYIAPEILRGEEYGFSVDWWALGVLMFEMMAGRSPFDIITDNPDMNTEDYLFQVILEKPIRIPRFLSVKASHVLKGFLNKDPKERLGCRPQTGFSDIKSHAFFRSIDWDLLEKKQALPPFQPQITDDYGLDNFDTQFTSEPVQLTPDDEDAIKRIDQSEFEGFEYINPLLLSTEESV

[13] = target: Protein kinase C alpha type (Homo sapiens) (UniProt P17252); assay: Inhibition of PKCalpha at 1 uM relative to control
[14] = Inhibition of CK2 at 1 uM relative to control
[15] = target: T2, Dual specificity tyrosine-phosphorylation-regulated kinase 2 (Homo sapiens) (UniProt Q92630); assay: Inhibition of DYRK2 at 1 uM relative to control
T2 sequence (whole entry): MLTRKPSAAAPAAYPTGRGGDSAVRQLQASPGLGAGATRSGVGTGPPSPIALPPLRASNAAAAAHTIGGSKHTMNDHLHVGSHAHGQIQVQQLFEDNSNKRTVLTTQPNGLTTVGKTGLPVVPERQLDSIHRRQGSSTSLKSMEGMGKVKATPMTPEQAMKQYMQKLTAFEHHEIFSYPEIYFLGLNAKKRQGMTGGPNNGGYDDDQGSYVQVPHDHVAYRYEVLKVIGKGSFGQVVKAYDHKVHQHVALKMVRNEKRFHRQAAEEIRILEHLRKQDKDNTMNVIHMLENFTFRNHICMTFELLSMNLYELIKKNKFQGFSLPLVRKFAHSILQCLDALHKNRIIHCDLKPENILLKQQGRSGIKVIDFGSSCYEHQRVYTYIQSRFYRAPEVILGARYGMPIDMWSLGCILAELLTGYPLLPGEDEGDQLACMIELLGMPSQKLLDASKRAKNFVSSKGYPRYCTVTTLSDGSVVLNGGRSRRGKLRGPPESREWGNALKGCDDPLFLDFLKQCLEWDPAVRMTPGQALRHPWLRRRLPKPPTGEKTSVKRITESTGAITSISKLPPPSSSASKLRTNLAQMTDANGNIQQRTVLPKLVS

[16] = target: SRSF protein kinase 1 (Homo sapiens) (UniProt Q96SB4); assay: Inhibition of SRPK1 at 1 uM relative to control
[17] = target: Serine/threonine-protein kinase PAK 4 (Homo sapiens) (UniProt O96013); assay: Inhibition of PAK4 at 1 uM relative to control
Chain of Serine/threonine-protein kinase PAK 4 (Homo sapiens) (O96013 whole entry, looked up): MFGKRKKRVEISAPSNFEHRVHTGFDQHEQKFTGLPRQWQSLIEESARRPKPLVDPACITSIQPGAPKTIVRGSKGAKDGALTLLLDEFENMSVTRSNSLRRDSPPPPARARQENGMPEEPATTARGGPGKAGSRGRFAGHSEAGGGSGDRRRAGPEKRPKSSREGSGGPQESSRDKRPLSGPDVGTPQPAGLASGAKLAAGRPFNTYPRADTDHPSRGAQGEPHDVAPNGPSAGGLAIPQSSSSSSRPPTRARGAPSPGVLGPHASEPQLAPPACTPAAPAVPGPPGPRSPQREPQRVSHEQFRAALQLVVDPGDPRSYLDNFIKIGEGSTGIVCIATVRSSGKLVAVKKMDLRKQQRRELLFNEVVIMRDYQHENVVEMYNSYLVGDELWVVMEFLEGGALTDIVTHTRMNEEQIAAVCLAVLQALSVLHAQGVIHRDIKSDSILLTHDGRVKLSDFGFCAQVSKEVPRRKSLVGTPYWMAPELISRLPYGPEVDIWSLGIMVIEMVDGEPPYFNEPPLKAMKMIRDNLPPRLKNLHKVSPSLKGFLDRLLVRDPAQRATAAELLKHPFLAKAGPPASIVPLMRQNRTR

[18] = target: Serine/threonine-protein kinase PAK 5 (Homo sapiens) (UniProt Q9P286); assay: Inhibition of PAK5 at 1 uM relative to control
[19] = target: MAP/microtubule affinity-regulating kinase 3 (Homo sapiens) (UniProt P27448); assay: Inhibition of MARK3 at 1 uM relative to control
Chain of MAP/microtubule affinity-regulating kinase 3 (Homo sapiens) (P27448 whole entry, looked up): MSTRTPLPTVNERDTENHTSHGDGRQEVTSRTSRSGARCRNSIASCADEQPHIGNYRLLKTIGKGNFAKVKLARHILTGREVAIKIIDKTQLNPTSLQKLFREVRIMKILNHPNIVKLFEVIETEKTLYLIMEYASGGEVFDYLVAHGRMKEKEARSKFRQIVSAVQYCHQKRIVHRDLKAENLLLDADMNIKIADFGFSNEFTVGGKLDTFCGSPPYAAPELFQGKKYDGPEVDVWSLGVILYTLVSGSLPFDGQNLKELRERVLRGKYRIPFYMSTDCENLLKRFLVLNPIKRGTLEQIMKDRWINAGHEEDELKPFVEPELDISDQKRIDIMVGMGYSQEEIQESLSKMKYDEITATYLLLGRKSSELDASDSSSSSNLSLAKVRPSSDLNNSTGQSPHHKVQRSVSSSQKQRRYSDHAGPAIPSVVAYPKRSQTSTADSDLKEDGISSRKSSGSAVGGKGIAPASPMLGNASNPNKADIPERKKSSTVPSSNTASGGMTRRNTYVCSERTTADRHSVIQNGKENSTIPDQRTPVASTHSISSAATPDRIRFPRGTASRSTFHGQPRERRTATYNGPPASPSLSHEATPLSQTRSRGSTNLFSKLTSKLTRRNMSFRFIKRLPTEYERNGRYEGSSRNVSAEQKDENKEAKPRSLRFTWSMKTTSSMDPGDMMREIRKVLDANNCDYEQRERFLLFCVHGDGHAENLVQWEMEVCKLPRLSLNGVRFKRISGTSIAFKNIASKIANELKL

[20] = target: MAP kinase-interacting serine/threonine-protein kinase 2 (Homo sapiens) (UniProt Q9HBH9); assay: Inhibition of MNK2 at 1 uM relative to control
Chain of MAP kinase-interacting serine/threonine-protein kinase 2 (Homo sapiens) (Q9HBH9 whole entry, looked up): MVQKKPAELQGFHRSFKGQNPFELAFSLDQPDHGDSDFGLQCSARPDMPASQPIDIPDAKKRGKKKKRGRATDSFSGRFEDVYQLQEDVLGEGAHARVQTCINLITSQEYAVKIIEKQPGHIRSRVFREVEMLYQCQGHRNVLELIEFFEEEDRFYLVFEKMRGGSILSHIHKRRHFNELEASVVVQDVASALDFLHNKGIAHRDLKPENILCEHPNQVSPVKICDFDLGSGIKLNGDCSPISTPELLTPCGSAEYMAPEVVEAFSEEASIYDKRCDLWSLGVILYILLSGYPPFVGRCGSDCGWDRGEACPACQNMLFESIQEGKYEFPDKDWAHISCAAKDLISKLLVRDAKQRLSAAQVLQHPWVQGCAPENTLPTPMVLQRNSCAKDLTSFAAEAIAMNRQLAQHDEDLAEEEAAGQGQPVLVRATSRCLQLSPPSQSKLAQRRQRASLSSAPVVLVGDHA

[21] = Inhibition of CK1 at 1 uM relative to control
[22] = target: T3, Aurora kinase C (Homo sapiens) (UniProt Q9UQB9); assay: Inhibition of Aurora C at 1 uM relative to control
T3 sequence (whole entry): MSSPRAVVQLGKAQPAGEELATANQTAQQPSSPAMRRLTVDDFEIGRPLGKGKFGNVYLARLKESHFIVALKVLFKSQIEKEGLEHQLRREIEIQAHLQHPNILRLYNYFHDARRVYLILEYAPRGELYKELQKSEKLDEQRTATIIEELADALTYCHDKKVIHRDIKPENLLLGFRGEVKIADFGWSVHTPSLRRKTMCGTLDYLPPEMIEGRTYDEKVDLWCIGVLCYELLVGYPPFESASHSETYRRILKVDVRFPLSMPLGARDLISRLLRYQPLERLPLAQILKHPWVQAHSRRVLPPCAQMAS

[23] = target: Tyrosine-protein kinase Lck (Homo sapiens) (UniProt P06239); assay: Inhibition of Lck at 1 uM relative to control
Chain of Tyrosine-protein kinase Lck (Homo sapiens) (P06239 2-509 limits assumed): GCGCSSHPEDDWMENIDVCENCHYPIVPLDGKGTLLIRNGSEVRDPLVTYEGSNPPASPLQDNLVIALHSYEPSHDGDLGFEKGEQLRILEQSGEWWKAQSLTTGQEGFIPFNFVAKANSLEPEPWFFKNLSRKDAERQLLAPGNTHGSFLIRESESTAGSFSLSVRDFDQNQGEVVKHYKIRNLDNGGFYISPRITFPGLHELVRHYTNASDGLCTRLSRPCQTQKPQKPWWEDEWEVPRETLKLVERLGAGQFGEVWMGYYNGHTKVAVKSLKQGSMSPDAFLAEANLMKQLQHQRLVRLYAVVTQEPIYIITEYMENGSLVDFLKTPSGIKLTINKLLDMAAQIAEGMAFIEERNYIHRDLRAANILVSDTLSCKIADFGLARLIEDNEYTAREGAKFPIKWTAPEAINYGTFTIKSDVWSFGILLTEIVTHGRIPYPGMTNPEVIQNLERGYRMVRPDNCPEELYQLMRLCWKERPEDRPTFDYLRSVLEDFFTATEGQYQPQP

[24] = target: Calcium/calmodulin-dependent protein kinase type 1 (Homo sapiens) (UniProt Q14012); assay: Inhibition of CAMK1 at 1 uM relative to control
Chain of Calcium/calmodulin-dependent protein kinase type 1 (Homo sapiens) (Q14012 whole entry, looked up): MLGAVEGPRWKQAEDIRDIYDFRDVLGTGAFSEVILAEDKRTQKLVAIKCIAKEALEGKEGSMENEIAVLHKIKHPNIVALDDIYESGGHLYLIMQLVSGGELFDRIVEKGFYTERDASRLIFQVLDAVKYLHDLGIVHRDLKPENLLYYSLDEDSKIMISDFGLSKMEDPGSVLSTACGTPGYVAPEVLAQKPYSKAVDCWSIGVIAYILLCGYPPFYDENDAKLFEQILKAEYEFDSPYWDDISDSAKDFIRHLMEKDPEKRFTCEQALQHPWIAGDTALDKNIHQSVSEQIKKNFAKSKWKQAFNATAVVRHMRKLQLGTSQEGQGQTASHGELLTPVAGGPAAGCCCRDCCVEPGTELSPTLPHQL

[25] = target: Aurora kinase B (Homo sapiens) (UniProt Q96GD4); assay: Inhibition of Aurora B at 1 uM relative to control

Chain of Mitogen-activated protein kinase 11 (Homo sapiens) (Q15759 whole entry): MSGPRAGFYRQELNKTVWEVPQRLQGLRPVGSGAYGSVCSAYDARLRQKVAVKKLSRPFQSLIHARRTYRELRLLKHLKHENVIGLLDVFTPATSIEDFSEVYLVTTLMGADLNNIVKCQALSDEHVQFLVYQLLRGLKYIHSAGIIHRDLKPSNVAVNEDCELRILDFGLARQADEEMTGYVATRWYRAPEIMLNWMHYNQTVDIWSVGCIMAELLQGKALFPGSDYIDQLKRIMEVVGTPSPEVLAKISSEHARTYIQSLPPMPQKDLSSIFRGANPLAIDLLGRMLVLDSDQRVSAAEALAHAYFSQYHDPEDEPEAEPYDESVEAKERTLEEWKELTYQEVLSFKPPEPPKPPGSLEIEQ
Chain of Calcium/calmodulin-dependent protein kinase kinase 2 (Homo sapiens) (Q96RR4 2-588 limits assumed): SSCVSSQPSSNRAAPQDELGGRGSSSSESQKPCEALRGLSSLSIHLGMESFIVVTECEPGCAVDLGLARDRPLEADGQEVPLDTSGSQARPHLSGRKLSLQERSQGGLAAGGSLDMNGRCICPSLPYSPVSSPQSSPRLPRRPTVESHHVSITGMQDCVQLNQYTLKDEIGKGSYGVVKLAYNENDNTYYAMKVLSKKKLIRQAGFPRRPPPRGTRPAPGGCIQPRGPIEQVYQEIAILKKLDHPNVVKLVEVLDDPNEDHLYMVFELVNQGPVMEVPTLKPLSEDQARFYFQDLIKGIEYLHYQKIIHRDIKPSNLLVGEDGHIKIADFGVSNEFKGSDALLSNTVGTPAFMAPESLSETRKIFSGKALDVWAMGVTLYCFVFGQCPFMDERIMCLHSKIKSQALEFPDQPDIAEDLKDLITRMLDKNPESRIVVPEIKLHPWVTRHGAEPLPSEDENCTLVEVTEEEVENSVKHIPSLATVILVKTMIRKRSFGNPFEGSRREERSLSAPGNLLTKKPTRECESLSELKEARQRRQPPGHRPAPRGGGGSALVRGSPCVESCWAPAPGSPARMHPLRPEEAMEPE

| residual activity [1] | residual activity [2] | residual activity [3] | residual activity [4] | residual activity [5] | residual activity [6] | residual activity [7] | residual activity [8] | residual activity [9] | residual activity [10] | residual activity [11] | residual activity [12] | residual activity [13] | residual activity [14] | residual activity [15] | residual activity [16] | residual activity [17] | residual activity [18] | residual activity [19] | residual activity [20] | Compound | other results |
| --- | --- | --- | --- | --- | --- | --- | --- | --- | --- | --- | --- | --- | --- | --- | --- | --- | --- | --- | --- | --- | --- |
| < 25% | 75% | 75% | 75% | 75% | 50% | 75% | 75% | 75% | 75% | 100% | 75% | 75% | 100% | 100% | 75% | 75% | 75% | 100% | 100% | CC(C)(C)c1cccc(NC(=O)Nc2ccc(Oc3ccnc4[nH]c(=O)[nH]c34)c3ccccc23)c1 | residual activity [21]: 75%; residual activity [22]: 75%; residual activity [23]: < 25%; residual activity [24]: 75%; residual activity [25]: 50% |
| < 25% | 100% | 100% | 100% | 100% | < 25% | 100% | 100% | 75% | 100% | 100% | 75% | 75% | 100% | 100% | 75% | 75% | 100% | 75% | 100% | O=C(Nc1cc(C(F)(F)F)ccc1F)Nc1ccc(Oc2ccnc3[nH]c(=O)[nH]c23)c2ccccc12 | residual activity [21]: 100%; residual activity [22]: < 25%; residual activity [23]: < 25%; residual activity [24]: < 25%; residual activity [25]: < 25% |
| < 25% | 50% | 100% | 100% | 100% | < 25% | 100% | 100% | 100% | 100% | 100% | 75% | 75% | 100% | 100% | 75% | 75% | 75% | 75% | 100% | CSc1cc(Oc2ccnc3[nH]c(=O)[nH]c23)ccc1NC(=O)Nc1cccc(C(F)(F)F)c1 | residual activity [21]: 75%; residual activity [22]: 50%; residual activity [23]: < 25%; residual activity [24]: < 25%; residual activity [25]: < 25% |
